In patent US20260356840A1, “[1,2,4]TRIAZOLO[1,5-A]PYRIMIDINONE WRN INHIBITORS” (Nimbus Wadjet, Inc., priority 2023, published 2026):

target: T1, human Werner helicase (Uniprot Q14191, amino acids 517-1235 with L1074F point mutation), WRN-BV08 (Homo sapiens, UniProt Q14191, L1074F); experiment: WRN (BV08) ADP-Glo Assay; assay type: biochemical
T1 construct: Uniprot Q14191, amino acids 517-1235 with L1074F point mutation; TEV cleavable 8xHis tag (C, cleaved yes); made in house; host or cells: Sf9 insect cells (baculovirus, pFastBac)
T1 sequence (Q14191 517-1235 L1074F): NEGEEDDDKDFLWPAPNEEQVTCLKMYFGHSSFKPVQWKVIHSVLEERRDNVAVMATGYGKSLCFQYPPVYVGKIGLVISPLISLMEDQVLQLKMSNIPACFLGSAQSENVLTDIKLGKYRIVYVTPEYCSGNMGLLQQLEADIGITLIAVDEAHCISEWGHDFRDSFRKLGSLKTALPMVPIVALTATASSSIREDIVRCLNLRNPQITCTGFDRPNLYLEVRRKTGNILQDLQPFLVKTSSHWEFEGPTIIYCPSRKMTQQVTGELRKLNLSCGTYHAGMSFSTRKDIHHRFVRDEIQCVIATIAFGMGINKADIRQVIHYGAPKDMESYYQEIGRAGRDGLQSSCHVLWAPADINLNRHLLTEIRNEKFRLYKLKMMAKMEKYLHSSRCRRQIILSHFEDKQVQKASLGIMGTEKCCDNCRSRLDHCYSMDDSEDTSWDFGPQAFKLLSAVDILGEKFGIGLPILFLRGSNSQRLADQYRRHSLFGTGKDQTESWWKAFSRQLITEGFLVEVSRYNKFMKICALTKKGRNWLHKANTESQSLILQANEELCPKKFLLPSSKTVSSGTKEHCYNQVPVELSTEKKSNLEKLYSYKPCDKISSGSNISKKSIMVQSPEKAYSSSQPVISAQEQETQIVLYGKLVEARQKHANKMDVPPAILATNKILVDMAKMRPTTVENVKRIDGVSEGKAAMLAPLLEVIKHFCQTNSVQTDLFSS

Row | Compound | IC50
1 | CCc1c(N2CCN(C(=O)c3ncnc(C)c3O)CC2)c(=O)n2nc(-c3ccnc(OC(F)F)c3)nc2n1CC(=O)Nc1ccc(C(F)(F)F)cc1Cl [Compound I-44, N-[2-chloro-4-(trifluoromethyl)phenyl]-2-{2-[2-(difluoromethoxy)pyridin-4-yl]-5-ethyl-6-[4-(5-hydroxy-6-methylpyrimidine-4-carbonyl)piperazin-1-yl]-7-oxo-4H,7H-[1,2,4]triazolo[1,5-a]pyrimidin-4-yl}acetamide] | 5 to 50 nM
2 | CCc1c(N2CCN(C(=O)c3cn(C)[nH]c3=O)CC2)c(=O)n2nc(C3=CCOCC3)nc2n1CC(=O)Nc1ccc(C(F)(F)F)cc1Cl [Compound I-11, N-[2-chloro-4-(trifluoromethyl)phenyl]-2-[2-(3,6-dihydro-2H-pyran-4-yl)-5-ethyl-6-[4-(3-hydroxy-1-methyl-1H-pyrazole-4-carbonyl)piperazin-1-yl]-7-oxo-4H,7H-[1,2,4]triazolo[1,5-a]pyrimidin-4-yl]acetamide] | < 5 nM
3 | CCc1c(N2CCN(C(=O)c3cnn(C)c3)CC2)c(=O)n2nc(C3=CCOCC3)nc2n1CC(=O)Nc1ccc(C(F)(F)F)cc1Cl [Compound I-23, N-[2-chloro-4-(trifluoromethyl)phenyl]-2-[2-(3,6-dihydro-2H-pyran-4-yl)-5-ethyl-6-[4-(1-methyl-1H-pyrazole-4-carbonyl)piperazin-1-yl]-7-oxo-4H,7H-[1,2,4]triazolo[1,5-a]pyrimidin-4-yl]acetamide] | 5 to 50 nM
4 | CCc1c(N2CCN(C(=O)c3ncnc(C)c3O)CC2)c(=O)n2nc(-c3ccnc(OC)c3F)nc2n1CC(=O)Nc1ccc(C(F)(F)F)cc1Cl [Compound I-45, N-[2-chloro-4-(trifluoromethyl)phenyl]-2-[5-ethyl-2-(3-fluoro-2-methoxypyridin-4-yl)-6-[4-(5-hydroxy-6-methylpyrimidine-4-carbonyl)piperazin-1-yl]-7-oxo-4H,7H-[1,2,4]triazolo[1,5-a]pyrimidin-4-yl]acetamide] | 5 to 50 nM
5 | CCc1c(N2CCN(C(=O)c3nn(C)cc3O)CC2)c(=O)n2nc(-c3ccnc(OC)c3)nc2n1CC(=O)Nc1ccc(C(F)(F)F)cc1Cl [Compound I-35, N-[2-chloro-4-(trifluoromethyl)phenyl]-2-{5-ethyl-6-[4-(4-hydroxy-1-methyl-1H-pyrazole-3-carbonyl)piperazin-1-yl]-2-(2-methoxypyridin-4-yl)-7-oxo-4H,7H-[1,2,4]triazolo[1,5-a]pyrimidin-4-yl}acetamide] | 5 to 50 nM
6 | CCc1c(N2CCN(C(=O)c3cnn(C)c3)CC2)c(=O)n2nc(-c3ccnc(OC)c3)nc2n1CC(=O)Nc1ccc(C(F)(F)F)cc1Cl [Compound I-48, N-[2-chloro-4-(trifluoromethyl)phenyl]-2-[5-ethyl-2-(2-methoxypyridin-4-yl)-6-[4-(1-methyl-1H-pyrazole-4-carbonyl)piperazin-1-yl]-7-oxo-4H,7H-[1,2,4]triazolo[1,5-a]pyrimidin-4-yl]acetamide] | < 5 nM
7 | CCc1c(N2CCN(C(=O)c3nocc3O)CC2)c(=O)n2nc(C3=CCOCC3)nc2n1CC(=O)Nc1ccc(C(F)(F)F)cc1Cl [Compound I-29, N-[2-chloro-4-(trifluoromethyl)phenyl]-2-[2-(3,6-dihydro-2H-pyran-4-yl)-5-ethyl-6-[4-(4-hydroxy-1,2-oxazole-3-carbonyl)piperazin-1-yl]-7-oxo-4H,7H-[1,2,4]triazolo[1,5-a]pyrimidin-4-yl]acetamide] | < 5 nM
8 | CCc1c(N2CCN(C(=O)c3c(F)cccc3F)CC2)c(=O)n2nc(C3=CCOCC3)nc2n1CC(=O)Nc1ccc(C(F)(F)F)cc1Cl [Compound I-10, N-[2-chloro-4-(trifluoromethyl)phenyl]-2-{6-[4-(2,6-difluorobenzoyl)piperazin-1-yl]-2-(3,6-dihydro-2H-pyran-4-yl)-5-ethyl-7-oxo-4H,7H-[1,2,4]triazolo[1,5-a]pyrimidin-4-yl}acetamide] | 5 to 50 nM
9 | CCc1c(N2CCN(C(=O)c3ccnc4cccnc34)CC2)c(=O)n2nc(C3=CCOCC3)nc2n1CC(=O)Nc1ccc(C(F)(F)F)cc1Cl [Compound I-37, N-[2-chloro-4-(trifluoromethyl)phenyl]-2-[2-(3,6-dihydro-2H-pyran-4-yl)-5-ethyl-6-[4-(1,5-naphthyridine-4-carbonyl)piperazin-1-yl]-7-oxo-4H,7H-[1,2,4]triazolo[1,5-a]pyrimidin-4-yl]acetamide] | 5 to 50 nM
10 | CCc1c(N2CC3CN(C(=O)c4ncnc(C)c4O)CC3C2)c(=O)n2nc(C3=CCOCC3)nc2n1CC(=O)Nc1ccc(C(F)(F)F)cc1Cl (stereo not drawn) [Compound I-8, N-[2-chloro-4-(trifluoromethyl)phenyl]-2-[2-(3,6-dihydro-2H-pyran-4-yl)-5-ethyl-6-[5-(5-hydroxy-6-methylpyrimidine-4-carbonyl)-octahydropyrrolo[3,4-c]pyrrol-2-yl]-7-oxo-4H,7H-[1,2,4]triazolo[1,5-a]pyrimidin-4-yl]acetamide] | 5 to 50 nM
11 | CCc1c(N2CCN(C(=O)c3cn[nH]n3)CC2)c(=O)n2nc(C3=CCOCC3)nc2n1CC(=O)Nc1ccc(C(F)(F)F)cc1Cl [Compound I-38, N-[2-chloro-4-(trifluoromethyl)phenyl]-2-[2-(3,6-dihydro-2H-pyran-4-yl)-5-ethyl-7-oxo-6-[4-(2H-1,2,3-triazole-4-carbonyl)piperazin-1-yl]-4H,7H-[1,2,4]triazolo[1,5-a]pyrimidin-4-yl]acetamide] | < 5 nM
12 | CCc1c(N2CCN(C(=O)c3sccc3O)CC2)c(=O)n2nc(C3=CCOCC3)nc2n1CC(=O)Nc1ccc(C(F)(F)F)cc1Cl [Compound I-6, N-[2-chloro-4-(trifluoromethyl)phenyl]-2-[2-(3,6-dihydro-2H-pyran-4-yl)-5-ethyl-6-[4-(3-hydroxythiophene-2-carbonyl)piperazin-1-yl]-7-oxo-4H,7H-[1,2,4]triazolo[1,5-a]pyrimidin-4-yl]acetamide] | 5 to 50 nM
13 | CCc1c(N2CCN(C(=O)c3sc(C(F)(F)F)cc3O)CC2)c(=O)n2nc(C3=CCOCC3)nc2n1CC(=O)Nc1ccc(C(F)(F)F)cc1Cl [Compound I-7, N-[2-chloro-4-(trifluoromethyl)phenyl]-2-[2-(3,6-dihydro-2H-pyran-4-yl)-5-ethyl-6-{4-[3-hydroxy-5-(trifluoromethyl)thiophene-2-carbonyl]piperazin-1-yl}-7-oxo-4H,7H-[1,2,4]triazolo[1,5-a]pyrimidin-4-yl]acetamide] | 5 to 50 nM

Results, then the compound that gave them:

Row | IC50 | Compound
14 | 5 to 50 nM | CCc1c(N2CCN(C(=O)c3cnn(C)c3)[C@H](C)C2)c(=O)n2nc(-c3ccnc(OC)c3)nc2n1CC(=O)Nc1ccc(C(F)(F)F)cc1Cl [Compound I-77, N-[2-chloro-4-(trifluoromethyl)phenyl]-2-[5-ethyl-2-(2-methoxypyridin-4-yl)-6-[(3R)-3-methyl-4-(1-methyl-1H-pyrazole-4-carbonyl)piperazin-1-yl]-7-oxo-4H,7H-[1,2,4]triazolo[1,5-a]pyrimidin-4-yl]acetamide]
15 | 5 to 50 nM | CCc1c(N2CCN(C(C)=O)CC2)c(=O)n2nc(-c3cnc(C(C)(C)O)s3)nc2n1CC(=O)Nc1ccc(C(F)(F)F)cc1Cl [Compound I-87, 2-[6-(4-acetylpiperazin-1-yl)-5-ethyl-2-[2-(2-hydroxypropan-2-yl)-1,3-thiazol-5-yl]-7-oxo-4H,7H-[1,2,4]triazolo[1,5-a]pyrimidin-4-yl]-N-[2-chloro-4-(trifluoromethyl)phenyl]acetamide]
16 | 5 to 50 nM | CCc1c(N2CCN(C(C)=O)CC2)c(=O)n2nc(-c3cnn(CC(C)(C)O)c3)nc2n1CC(=O)Nc1ccc(C(F)(F)F)cc1Cl [Compound I-55, 2-[6-(4-acetylpiperazin-1-yl)-5-ethyl-2-[1-(2-hydroxy-2-methylpropyl)-1H-pyrazol-4-yl]-7-oxo-4H,7H-[1,2,4]triazolo[1,5-a]pyrimidin-4-yl]-N-[2-chloro-4-(trifluoromethyl)phenyl]acetamide]
17 | 5 to 50 nM | CCc1c(N2CCN(C(=O)c3cnn(C)c3)CC2)c(=O)n2nc(-c3ccnc(OC)c3)nc2n1CC(=O)Nc1ccc(S(F)(F)(F)(F)F)cc1Cl [Compound I-82, N-[2-chloro-4-(pentafluoro-lambda6-sulfanyl)phenyl]-2-[5-ethyl-2-(2-methoxypyridin-4-yl)-6-[4-(1-methyl-1H-pyrazole-4-carbonyl)piperazin-1-yl]-7-oxo-4H,7H-[1,2,4]triazolo[1,5-a]pyrimidin-4-yl]acetamide]
18 | 5 to 50 nM | CCc1c(N2CCN(C(=O)c3c(C)nn(C)c3OC)CC2)c(=O)n2nc(-c3ccnc(OC)c3)nc2n1CC(=O)Nc1ccc(C(F)(F)F)cc1Cl [Compound I-62, N-[2-chloro-4-(trifluoromethyl)phenyl]-2-{5-ethyl-6-[4-(5-methoxy-1,3-dimethyl-1H-pyrazole-4-carbonyl)piperazin-1-yl]-2-(2-methoxypyridin-4-yl)-7-oxo-4H,7H-[1,2,4]triazolo[1,5-a]pyrimidin-4-yl}acetamide]
19 | 5 to 50 nM | CCc1c(N2CCN(C(=O)c3nocc3O)CC2)c(=O)n2nc(-c3ccnc(OC)c3)nc2n1CC(=O)Nc1ccc(C(F)(F)F)cc1Cl [Compound I-88, N-[2-chloro-4-(trifluoromethyl)phenyl]-2-{5-ethyl-6-[4-(4-hydroxy-1,2-oxazole-3-carbonyl)piperazin-1-yl]-2-(2-methoxypyridin-4-yl)-7-oxo-4H,7H-[1,2,4]triazolo[1,5-a]pyrimidin-4-yl}acetamide]
20 | 5 to 50 nM | CCc1c(N2CCN(C(=O)c3cnn(C)c3)CC2)c(=O)n2nc(-c3cc(OC)ccn3)nc2n1CC(=O)Nc1ccc(C(F)(F)F)cc1Cl [Compound I-69, N-[2-chloro-4-(trifluoromethyl)phenyl]-2-[5-ethyl-2-(4-methoxypyridin-2-yl)-6-[4-(1-methyl-1H-pyrazole-4-carbonyl)piperazin-1-yl]-7-oxo-4H,7H-[1,2,4]triazolo[1,5-a]pyrimidin-4-yl]acetamide]
21 | 100 to 500 nM | CCc1c(N2CCN(C(=O)c3cnn(C)c3)CC2)c(=O)n2nc(-c3nccc(OC)n3)nc2n1CC(=O)Nc1ccc(C(F)(F)F)cc1Cl [Compound I-70, N-[2-chloro-4-(trifluoromethyl)phenyl]-2-[5-ethyl-2-(4-methoxypyrimidin-2-yl)-6-[4-(1-methyl-1H-pyrazole-4-carbonyl)piperazin-1-yl]-7-oxo-4H,7H-[1,2,4]triazolo[1,5-a]pyrimidin-4-yl]acetamide]
